What was measured:
NMDAR2A = target: T1, NMDAR2A (Homo sapiens, UniProt Q12879); experiment: [3H]MK-801 binding in NMDAR expressing HEK cell membranes (facilitation of NMDAR activation); format: biochemical; settings: 50 μM glutamate; for EC50: read-out: B: log EC50 (converted); for Emax: 0.25 h, read-out: A: % maximal [3H]MK-801 binding relative to 1 mM glycine
T1 construct: expressed in transfected cells; host or cells: HEK cells (membrane extract)
Procedure: (§1) Assays were conducted as described by Moskal et al., “GLYX-13: a monoclonal antibody-derived peptide that acts as an N-methyl-D-aspartate receptor modulator,” Neuropharmacology, 49, 1077-87, 2005. These studies were designed to determine if the test compounds act to facilitate NMDAR activation in NMDAR2A, NMDAR2B, NMDAR2C or NMDAR2D expressing HEK cell membranes as measured by increases in [^3H]MK-801 binding.
(§2) In the assay, 300 μg of NMDAR expressing HEK cell membrane extract protein was preincubated for 15 minutes at 25° C. in the presence of saturating concentrations of glutamate (50 μM) and varying concentrations of test compound (1×10^15M−1×10^−7M), or 1 mM glycine. Following the addition of 0.3 μCi of [^3H]MK-801 (22.5 Ci/mmol), reactions were again incubated for 15 minutes at 25° C. (nonequilibrium conditions). Bound and free [^3H]MK-801 were separated via rapid filtration using a Brandel apparatus.
(§3) In analyzing the data, the DPM (disintegrations per minute) of [^3H]MK-801 remaining on the filter were measured for each concentration of test compound or for 1 mM glycine. The DPM values for each concentration of a ligand (N=2) were averaged. The baseline value was determined from the best fit curve of the DPM values modeled using the GraphPad program and the log(agonist) vs. response (three parameters) algorithm was then subtracted from all points in the dataset. The % maximal [^3H]MK-801 binding was then calculated relative to that of 1 mM glycine: all baseline subtracted DPM values were divided by the average value for 1 mM glycine. The EC50 and % maximal activity were then obtained from the best fit curve of the % maximal [^3H]MK-801 binding data modelled using the GraphPad program and the log(agonist) vs. response (three parameters) algorithm.
(§4) The tables below summarize the results for the wild type NMDAR agonists NMDAR2A, NMDAR2B, NMDAR2C, and NMDAR2D, and whether the compound is not an agonist (−), is an agonist (+), or is a strong agonist (++), where column A is based on the % maximal [^3H]MK-801 binding relative to 1 mM glycine (−=0; <100%=+; and >100%=++); and column B is based on log EC50 values (0=−; ≥1×10^−9 M (e.g., −8)=+; and <1×10^−9 M (e.g., −10)=++).

NMDAR2B = target: T2, NMDAR2B (Homo sapiens, UniProt Q13224); experiment: as above; format: biochemical; settings: 50 μM glutamate; for EC50: read-out: B: log EC50 (converted); for Emax: 0.25 h, read-out: A: % maximal [3H]MK-801 binding relative to 1 mM glycine
T2 construct: expressed in transfected cells; host or cells: HEK cells (membrane extract)
T2 sequence (Q13224 27-1484, species assumed, other chains not shown): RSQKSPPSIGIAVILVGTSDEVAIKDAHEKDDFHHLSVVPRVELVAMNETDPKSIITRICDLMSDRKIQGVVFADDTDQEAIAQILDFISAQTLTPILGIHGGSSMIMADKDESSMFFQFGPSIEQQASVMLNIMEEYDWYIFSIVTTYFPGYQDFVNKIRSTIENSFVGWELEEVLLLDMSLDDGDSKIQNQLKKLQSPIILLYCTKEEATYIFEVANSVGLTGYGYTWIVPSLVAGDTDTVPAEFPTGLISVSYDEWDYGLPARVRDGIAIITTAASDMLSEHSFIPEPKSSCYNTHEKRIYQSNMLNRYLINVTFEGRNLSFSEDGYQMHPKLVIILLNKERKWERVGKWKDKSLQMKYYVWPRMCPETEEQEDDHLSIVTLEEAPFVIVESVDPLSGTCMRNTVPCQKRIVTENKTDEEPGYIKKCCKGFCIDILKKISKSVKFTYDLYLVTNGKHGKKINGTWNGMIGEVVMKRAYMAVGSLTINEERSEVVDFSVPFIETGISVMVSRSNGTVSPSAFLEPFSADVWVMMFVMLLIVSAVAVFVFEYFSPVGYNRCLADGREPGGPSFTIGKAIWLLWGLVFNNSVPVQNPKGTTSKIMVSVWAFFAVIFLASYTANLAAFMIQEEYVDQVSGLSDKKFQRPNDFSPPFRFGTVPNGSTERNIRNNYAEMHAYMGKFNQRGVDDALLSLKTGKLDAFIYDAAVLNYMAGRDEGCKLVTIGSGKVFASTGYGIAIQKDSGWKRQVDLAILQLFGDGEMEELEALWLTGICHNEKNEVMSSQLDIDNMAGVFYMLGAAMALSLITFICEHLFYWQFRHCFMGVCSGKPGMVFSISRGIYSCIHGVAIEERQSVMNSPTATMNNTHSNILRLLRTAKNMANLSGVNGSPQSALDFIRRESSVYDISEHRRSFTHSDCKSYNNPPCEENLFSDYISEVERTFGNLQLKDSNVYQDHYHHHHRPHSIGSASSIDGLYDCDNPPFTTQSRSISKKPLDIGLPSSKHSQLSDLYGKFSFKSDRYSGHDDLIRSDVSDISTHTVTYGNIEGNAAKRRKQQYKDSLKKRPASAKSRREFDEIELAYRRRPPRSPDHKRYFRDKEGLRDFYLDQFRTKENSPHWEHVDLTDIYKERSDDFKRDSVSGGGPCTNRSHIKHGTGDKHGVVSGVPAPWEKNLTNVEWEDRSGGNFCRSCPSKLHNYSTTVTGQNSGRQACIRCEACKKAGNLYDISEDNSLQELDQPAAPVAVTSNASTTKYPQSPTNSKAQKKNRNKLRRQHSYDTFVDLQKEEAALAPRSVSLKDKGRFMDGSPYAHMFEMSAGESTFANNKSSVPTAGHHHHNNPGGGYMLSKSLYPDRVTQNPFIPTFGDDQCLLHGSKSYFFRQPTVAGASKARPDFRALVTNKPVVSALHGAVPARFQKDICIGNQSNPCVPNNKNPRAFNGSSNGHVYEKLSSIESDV
Procedure: as §1, §2, §3, §4

Sprague Dawley rats [1] = experiment: Porsolt forced swim test; format: in vivo, rat; set-up: key to Significance vs. vehicle: Yes: statistically significant (p<=0.05) from vehicle at dose level shown; No: not statistically significant from vehicle
Procedure: A non-clinical in vivo pharmacology study (Porsolt assay) was performed to measure antidepressant-like effects. A negative control (0.5% sodium carboxymethyl cellulose in 0.9% sterile saline vehicle) and a positive control (fluoxetine) are shown for comparison against test compound. The study allowed for the evaluation of the effects of each compound on the Porsolt forced swim test as assessed by the rats' response (reduced floating time) during a 5-minute swimming test.
(§5) Male 2-3 month old Sprague Dawley rats were used (Harlan, Indianapolis, Ind.). Rats were housed in Lucite cages with aspen wood chip bedding, maintained on a 12:12 light:dark cycle (lights on at 5 AM), and given ad libitum access to Purina lab chow (USA) and tap water throughout the study.
The Porsolt forced swim test adapted for use in rats was performed as described by Burgdorf et al., (The long-lasting antidepressant effects of rapastinel (GLYX-13) are associated with a metaplasticity process in the medial prefrontal cortex and hippocampus. Neuroscience 308:202-211, 2015). Animals were placed in a 46 cm tall×20 cm in diameter clear glass tube filled to 30 cm with tap water (23±1° C.) for 15 min on the first day (habituation) and 5 min on the subsequent test day. Positive control fluoxetine was dosed 3 times (24 h, 5 h and 1 h) prior to testing. Animals were tested 1 h or 24 h post-dosing with the test compounds or vehicle. Animals received a 15 min habituation session 1 day before the 5 min test. A subset of compounds tested at 1 h post-dosing were retested at 1 wk post-dosing in the same sets of animals. Water was changed after every other animal. Animals were videotaped, and floating time as defined as the minimal amount of effort required to keep the animals head above water was scored offline by a blinded experimenter with high inter-rater reliability (Pearson's r>0.9).
Each compound tested at dose level shown. Significance vs. vehicle group for each experiment is marked. […] A compound marked “No” was not statistically significant from vehicle. Data was averaged for test compound and vehicle groups (N approximately 8 per group) and the percent reduction in floating for group treated with test compound relative to group treated with vehicle is shown.

IV pharmacokinetics = format: in vivo, Sprague Dawley rats; settings: rat, normal saline (* in 5% NMP, 5% Solutol HS, 90% normal saline); for AUC(0-t) / half-life / C0 / Vd: Sprague-Dawley, in vivo, iv, 2 mg/kg; for C0: read-out: C0; for Vd: read-out: Vss; for CI: intravenous 2 mg/kg
From the text: The table below summarizes the results of the IV pharmacokinetics.

[2] = oral pharmacokinetics (plasma, brain, CSF); format: in vivo, Sprague Dawley rats; settings: rat, per os 10 mg/kg; for AUC(0-t) / bioavailability / Tmax / Cmax: Sprague-Dawley, plasma, po, 10 mg/kg; for Tmax: normal saline (* in 5% NMP, 5% Solutol HS, 90% normal saline), read-out: Tmax; for Cmax: read-out: Cmax
Procedure: In another experiment, Sprague Dawley rats were dosed per os using a normal saline formulation containing 10 mg/kg of the compounds identified in the table below (except for the compounds marked with an asterisk (“*”) that were delivered in 5% NMP, 5% Solutol® HS and 90% normal saline formulation). Plasma, brain, and CSF samples were analyzed at various time points over a 24 hour period.

Sprague Dawley rats [3] = experiment: Bennett model of mechanical analgesia (sciatic nerve chronic constriction, paw withdrawal threshold); format: in vivo, rat; settings: 150 mg/kg PO, example gabapentin control value;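 also: log paw withdrawal threshold scaled from vehicle group mean (0%) to naive 15 g value (100%)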
Procedure: The Bennett model of mechanical analgesia is used to assess the analgesic effects of compounds as measured by paw withdrawal threshold. Bennett GJ, Xie YK, “A peripheral mononeuropathy in rat that produces disorders of pain sensation like those seen in man,” Pain 33:87-107, 1988. […] Vehicle animals receive the surgery and then receive vehicle rather than test compound. Animals were tested 1 hr, 24 h and 1 wk post-test compound or vehicle administration.
as §5, with “used. Harlan was the supplier for all studies.” for “used (Harlan, Indianapolis, Ind.).”
Rats were anesthetized using inhaled isoflurane (2.5%). Sciatic nerve chronic constriction nerve injury surgery was performed as previously described (Bennett and Xie, 1988). An incision (˜1.5 cm in length) was made with a scalpel blade dorsally through skin on the right hind limb, parallel and posterior to femur. Using a small pointed hemostat, the biceps femoris and gluteus superficialis muscles were separated. Using curved blunt forceps, the common sciatic nerve was isolated and exposed. For the mechanical analgesia studies, the whole sciatic nerve was ligated. Using hemostats/forceps and chromic gut (5-0), the nerve was loosely ligated with a square knot; 3 ligatures, 1 mm apart were placed on the nerve. […] Testing occurred approximately 2 weeks post-surgery.
During testing, rats were acclimated to the surface of a suspended wire mesh grid (1 cm×1 cm, with the wire being 0.3 cm in diameter) for 15-20 min. Starting from the smallest, each Von Frey filament was pressed perpendicularly to the plantar surface of the affected (ipsilateral) hind paw until slightly bent and then held for 6 second. If an obvious hind paw withdrawal or a flinching behavior immediately after the withdrawal of the filament was not observed, the next larger filament was used in the same manner. In case of a response, a lower filament was used. This was repeated until six responses were collected.
For all studies, animals were baselined prior to study start to test for allodynia (defined as a paw withdrawal threshold under 5). A subset of animals was tested with gabapentin (150 mg/kg, PO) to ensure at least 50% analgesia. Once it was confirmed animals were ready for study initiation, animals were balanced across groups. All study investigators were blind to treatment conditions. Animals were dosed with 0.1, 1 or 10 mg/kg of test compound via oral gavage (PO), control sets of animals were dosed with gabapentin (150 mg/kg, PO) or vehicle (0.5% Na-CMC in 0.9% sterile saline, PO). Testing occurred 1 h post-dosing with animals retested 24 hrs and 1 week post-dosing. The percent analgesia calculations for each animal were made using the following equation: % analgesia=[(log(x)−y)/((log (z)−y)]*100, where x=the paw withdrawal threshold for the drug-treated animal in grams, y=the average of the log(x) values for the vehicle treated group, and z=the paw withdrawal threshold for naïve animals in grams (historical value of 15 used).
The results are shown in the table below where the percentage of analgesia is measured at 1 hour, 24 hours, and 1 week after compound administration. Since each study had its own gabapentin control group, an example gabapentin control value is shown.

[4] = 20 mg/kg, dosed 3 times (24 h, 5 h and 1 h) prior to testing, 1 h post-dose

T1 sequence (Q12879 23-1464, species assumed, other chains not shown): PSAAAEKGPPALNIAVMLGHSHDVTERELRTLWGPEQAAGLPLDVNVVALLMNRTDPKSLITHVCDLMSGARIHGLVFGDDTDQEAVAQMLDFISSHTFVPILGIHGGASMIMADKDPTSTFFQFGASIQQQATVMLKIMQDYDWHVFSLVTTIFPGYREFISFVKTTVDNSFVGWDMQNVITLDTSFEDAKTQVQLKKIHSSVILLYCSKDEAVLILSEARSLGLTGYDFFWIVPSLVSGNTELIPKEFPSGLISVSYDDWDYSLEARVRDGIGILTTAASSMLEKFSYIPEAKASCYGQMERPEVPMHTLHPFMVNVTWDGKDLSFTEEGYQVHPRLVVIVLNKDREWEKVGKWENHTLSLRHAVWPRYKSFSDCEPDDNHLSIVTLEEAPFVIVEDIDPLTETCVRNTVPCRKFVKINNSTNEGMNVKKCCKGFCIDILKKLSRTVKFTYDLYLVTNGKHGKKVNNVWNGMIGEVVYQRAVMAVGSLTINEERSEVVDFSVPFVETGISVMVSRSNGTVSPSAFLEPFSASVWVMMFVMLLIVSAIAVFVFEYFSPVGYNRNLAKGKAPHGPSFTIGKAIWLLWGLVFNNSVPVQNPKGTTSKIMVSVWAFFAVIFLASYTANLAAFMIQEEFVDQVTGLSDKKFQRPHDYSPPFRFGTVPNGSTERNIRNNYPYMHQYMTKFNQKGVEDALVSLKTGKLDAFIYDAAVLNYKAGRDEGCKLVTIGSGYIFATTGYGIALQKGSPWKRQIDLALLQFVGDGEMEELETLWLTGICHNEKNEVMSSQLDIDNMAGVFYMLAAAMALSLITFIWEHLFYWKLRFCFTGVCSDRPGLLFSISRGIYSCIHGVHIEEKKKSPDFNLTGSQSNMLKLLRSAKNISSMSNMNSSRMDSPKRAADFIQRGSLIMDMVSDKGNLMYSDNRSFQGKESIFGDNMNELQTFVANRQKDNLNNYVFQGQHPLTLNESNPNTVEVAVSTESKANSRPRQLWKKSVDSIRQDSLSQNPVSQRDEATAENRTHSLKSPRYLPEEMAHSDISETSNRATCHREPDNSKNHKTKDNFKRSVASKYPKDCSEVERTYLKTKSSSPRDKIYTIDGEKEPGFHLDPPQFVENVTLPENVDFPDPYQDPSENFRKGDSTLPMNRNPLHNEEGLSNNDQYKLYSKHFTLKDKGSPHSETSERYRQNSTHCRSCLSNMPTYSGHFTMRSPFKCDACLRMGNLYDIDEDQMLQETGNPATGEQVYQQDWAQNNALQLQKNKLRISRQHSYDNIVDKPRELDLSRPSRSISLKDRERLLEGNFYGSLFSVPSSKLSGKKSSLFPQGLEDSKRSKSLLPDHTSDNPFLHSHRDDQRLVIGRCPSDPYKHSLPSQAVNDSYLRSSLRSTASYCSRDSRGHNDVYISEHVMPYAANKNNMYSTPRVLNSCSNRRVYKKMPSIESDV

Compound `NC(=O)C(CO)N1CC2(CCCCC2)C1=O` (single isomer, unassigned) [AS, 3-hydroxy-2-(l-oxo-2-azaspiro[3.5]nonan-2-yl)propanamide] has an EC50 (NMDAR2A) of less than 1 nM, an Emax (NMDAR2A) of less than 100% and an EC50 (NMDAR2B) of less than 1 nM. The Emax (NMDAR2B) was less than 100%, the “% reduction in float time” value (Sprague Dawley rats [1]; 0.1 mg/kg, 1 wk post-dose) was 32.0% and the Significance vs. vehicle (Sprague Dawley rats [1]; 0.1 mg/kg, 1 wk post-dose) was “No”. For the same compound, the “% reduction in float time” value (Sprague Dawley rats [1]; 0.1 mg/kg, 1 h post-dose) was 82.3% and the Significance vs. vehicle (Sprague Dawley rats [1]; 0.1 mg/kg, 1 h post-dose) was “Yes (statistically significant (p<=0.05) from vehicle at dose level shown)”.

In the case of `NC(=O)C(CO)N1CC2(CCCCC2)C1=O` (single isomer, unassigned) [AT, 3-hydroxy-2-(l-oxo-2-azaspiro[3.5]nonan-2-yl)propanamide], the “A: % maximal [3H]MK-801 binding relative to 1 mM glycine” value (NMDAR2A) was “+ (<100%=+)”, the EC50 (NMDAR2A) was less than 1 nM and the “A: % maximal [3H]MK-801 binding relative to 1 mM glycine” value (NMDAR2B) was “+ (<100%=+)”. It also gave an EC50 (NMDAR2B) of less than 1 nM, an AUC(0-t) (IV pharmacokinetics) of 2090 ng·h/mL and a half-life (IV pharmacokinetics) of 143 min. The C0 (IV pharmacokinetics) was 2760 ng/mL, the Vd (IV pharmacokinetics) was 1.14 L/kg and the CI (IV pharmacokinetics) was 15.94 mL/min/kg. It also gave an AUC(0-t) [2] of 8340 ng·h/mL, a bioavailability [2] of 80% and a Tmax [2] of 15 min. The Cmax [2] was 6520 ng/mL, the “CSF Cmax” value [2] was 1758 ng/mL and the “Brain Cmax” value [2] was 120 ng/mL. The “% reduction in float time” value (Sprague Dawley rats [1]; 0.1 mg/kg, 1 wk post-dose) was 55.6%, the Significance vs. vehicle (Sprague Dawley rats [1]; 0.1 mg/kg, 1 wk post-dose) was “Yes (statistically significant (p<=0.05) from vehicle at dose level shown)” and the “% reduction in float time” value (Sprague Dawley rats [1]; 0.1 mg/kg, 1 h post-dose) was 63.4%. The Significance vs. vehicle (Sprague Dawley rats [1]; 0.1 mg/kg, 1 h post-dose) was “Yes (statistically significant (p<=0.05) from vehicle at dose level shown)”.

With `CC1CCC2(CC1)CN(C(CCC(N)=O)C(N)=O)C2=O` (single isomer, unassigned) [BF, 2-(7-methyl-1-oxo-2-azaspiro[3.5]nonan-2-yl)pentanediamide] the “A: % maximal [3H]MK-801 binding relative to 1 mM glycine” value (NMDAR2A) was “+ (<100%=+)”, the EC50 (NMDAR2A) was less than 1 nM and the “A: % maximal [3H]MK-801 binding relative to 1 mM glycine” value (NMDAR2B) was “+ (<100%=+)”. It also gave an EC50 (NMDAR2B) of less than 1 nM, an AUC(0-t) (IV pharmacokinetics) of 973 ng·h/mL and a half-life (IV pharmacokinetics) of 90.6 min. It also gave a C0 (IV pharmacokinetics) of 2220 ng/mL, a Vd (IV pharmacokinetics) of 1.52 L/kg and a CI (IV pharmacokinetics) of 34.13 mL/min/kg. It also gave an AUC(0-t) [2] of 5290 ng·h/mL, a bioavailability [2] of 100% and a Tmax [2] of 30 min. The Cmax [2] was 3020 ng/mL, the “CSF Cmax” value [2] was 56.6 ng/mL and the “Brain Cmax” value [2] was 61.2 ng/mL. For the same compound, the “% reduction in float time” value (Sprague Dawley rats [1]; 0.1 mg/kg, 1 h post-dose) was 84.4% and the Significance vs. vehicle (Sprague Dawley rats [1]; 0.1 mg/kg, 1 h post-dose) was “Yes (statistically significant (p<=0.05) from vehicle at dose level shown)”.

With `C[C@@H](O)[C@@H](C(N)=O)N1CC2(CCCCC2)C1=O` [Compound AA, (2S,3R)-3-hydroxy-2-(1-oxo-2-azaspiro[3.5]nonan-2-yl)butanamide] the Emax (NMDAR2A) was 0%, the EC50 (NMDAR2B) was less than 1 nM and the Emax (NMDAR2B) was less than 100%. The AUC(0-t) (IV pharmacokinetics) was 397 ng·h/mL, the half-life (IV pharmacokinetics) was 35.4 min and the C0 (IV pharmacokinetics) was 608 ng/mL. The Vd (IV pharmacokinetics) was 2.23 L/kg, the CI (IV pharmacokinetics) was 84.91 mL/min/kg and the AUC(0-t) [2] was 1540 ng·h/mL. The bioavailability [2] was 78%, the Tmax [2] was 19.8 min and the Cmax [2] was 1230 ng/mL. For the same compound, the “% reduction in float time” value (Sprague Dawley rats [1]; 0.1 mg/kg, 1 h post-dose) was 42.0%, the Significance vs. vehicle (Sprague Dawley rats [1]; 0.1 mg/kg, 1 h post-dose) was “Yes (statistically significant (p<=0.05) from vehicle at dose level shown)” and the “% reduction in float time” value (Sprague Dawley rats [1]; 0.1 mg/kg, 24 h post-dose) was 48.60%. For the same compound, the Significance vs. vehicle (Sprague Dawley rats [1]; 0.1 mg/kg, 24 h post-dose) was “Yes (statistically significant (p<=0.05) from vehicle at dose level shown)”.

In the case of `CNCCC(Oc1ccc(C(F)(F)F)cc1)c1ccccc1` (centres unmarked) [Fluoxetine, reference compound], the “% reduction in float time” value (Sprague Dawley rats [1]; [4]) was 54% and the Significance vs. vehicle (Sprague Dawley rats [1]; [4]) was “Yes (statistically significant (p<=0.05) from vehicle at dose level shown)”.

In the case of `NCC1(CC(=O)O)CCCCC1` [Gabapentin, reference compound], the “% analgesia” value (Sprague Dawley rats [3]; 1 wk post-dosing) was 0%, the “% analgesia” value (Sprague Dawley rats [3]; 1 h post-dosing) was 72% and the “% analgesia” value (Sprague Dawley rats [3]; 1 h post-dosing, listed as gabapentin) was “at least 50%”.

— US10961189B2, “Spiro-lactam NMDA receptor modulators and uses thereof” (Aptinyx Inc., priority 2016, dated 2021)
